Reference: the supplement of paper PMC10307832

Key:
Assay in all cases: relative viability (nuclei count vs DMSO), 5 days (fraction); higher = more cells survive
[1] = compound: CN(C/C=C/C1=CC=C(C=C1)Cl)CC2=CC=CC=C2N(CCO)S(=O)(=O)C3=CC=C(C=C3)OC [KN-93] + CC(=O)c1c(C)c2cnc(Nc3ccc(N4CCNCC4)cn3)nc2n(C2CCCC2)c1=O [Palbociclib] (partner 0.5 µM)
How it was run: (§1)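 For relative viability, nuclei counts in treated wells were divided by those in vehicle wells. Lung cancer cell lines had been pin-tool dosed in 1536-well plates the day after seeding and cultured for 5 days, then fixed and stained in one step (final 0.05% Triton X-100, 1% formaldehyde, 1 ug/ml Hoechst) and imaged at 4×. Doses were one drug alone or a fixed anchor-drug dose plus five library-drug doses (not always all listed) in √10 steps, and values are duplicate-plate medians.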

[2] = compound: CN(C/C=C/C1=CC=C(C=C1)Cl)CC2=CC=CC=C2N(CCO)S(=O)(=O)C3=CC=C(C=C3)OC [KN-93] + CCNC(=O)c1noc(-c2cc(C(C)C)c(O)cc2O)c1-c1ccc(CN2CCOCC2)cc1 [Luminespib] (partner 0.01 µM)
How it was run: as §1

[3] = compound: CN(C/C=C/C1=CC=C(C=C1)Cl)CC2=CC=CC=C2N(CCO)S(=O)(=O)C3=CC=C(C=C3)OC [KN-93] + C[C@]1(O)C[C@@H](c2nc(-c3ccc4ccc(-c5ccccc5)nc4c3)c3c(N)nccn32)C1 [Linsitinib] (partner 1 µM)
How it was run: as §1

[4] = compound: CN(C/C=C/C1=CC=C(C=C1)Cl)CC2=CC=CC=C2N(CCO)S(=O)(=O)C3=CC=C(C=C3)OC [KN-93] + NC(=O)Nc1cc(-c2cccc(F)c2)sc1C(=O)N[C@H]1CCCNC1 [AZD7762] (partner 0.2 µM)
How it was run: as §1

[5] = compound: CN(C/C=C/C1=CC=C(C=C1)Cl)CC2=CC=CC=C2N(CCO)S(=O)(=O)C3=CC=C(C=C3)OC [KN-93] + O=C(c1cc(Cc2n[nH]c(=O)c3ccccc23)ccc1F)N1CCN(C(=O)C2CC2)CC1 [Olaparib] (partner 8 µM)
How it was run: as §1

Row | Cell Line | relative viability ([1]; first compound 0.08 µM) | relative viability ([1]; first compound 0.253 µM) | relative viability ([1]; first compound 2.53 µM) | relative viability ([1]; first compound 8 µM) | relative viability ([2]; first compound 0.08 µM) | relative viability ([2]; first compound 0.253 µM) | relative viability ([2]; first compound 2.53 µM) | relative viability ([2]; first compound 8 µM) | relative viability ([3]; first compound 0.08 µM) | relative viability ([3]; first compound 0.253 µM) | relative viability ([3]; first compound 2.53 µM) | relative viability ([3]; first compound 8 µM) | relative viability ([4]; first compound 0.08 µM) | relative viability ([4]; first compound 0.253 µM) | relative viability ([4]; first compound 2.53 µM) | relative viability ([4]; first compound 8 µM) | relative viability ([5]; first compound 0.08 µM) | relative viability ([5]; first compound 0.253 µM) | relative viability ([5]; first compound 2.53 µM) | relative viability ([5]; first compound 8 µM)
1 | LC-2-ad | 0.491 | 0.517 | 0.529 | 0.452 | 1.11 | 1.15 | 0.94 | 0.818 | 0.824 | 0.906 | 0.856 | 0.566 | 0.775 | 0.958 | 0.953 | 0.785 | 0.687 | 0.739 | 0.733 | 0.62
2 | LCLC-97TM1 | 0.293 | 0.227 | 0.207 | 0.158 | 0.717 | 0.845 | 0.849 | 0.714 | 0.162 | – | 0.2 | 0.142 | 0.289 | 0.279 | 0.198 | 0.224 | 0.308 | 0.368 | 0.449 | 0.242
3 | LCLC-103H | 0.472 | 0.458 | 0.49 | 0.518 | 0.948 | 1.22 | 1.04 | 0.756 | 1.17 | 1.05 | 0.963 | 0.877 | 0.732 | 0.808 | 0.822 | 0.626 | 0.701 | 0.859 | 0.758 | 0.558
4 | LK-2 | 0.775 | 1.12 | 0.834 | 0.559 | 0.225 | 0.176 | 0.212 | 0.174 | 0.605 | 0.609 | 0.634 | 0.479 | 0.419 | 0.366 | 0.428 | 0.3 | 0.79 | 0.643 | 0.89 | 0.582
5 | LOU-NH91 | 0.542 | 0.562 | 0.56 | 0.512 | 0.399 | 0.353 | 0.331 | 0.321 | 0.926 | 0.856 | 0.931 | 0.791 | 0.731 | 0.659 | 0.802 | 0.623 | 0.901 | 0.809 | 0.976 | 0.847
6 | LU99A | 0.455 | 0.457 | 0.397 | 0.371 | 0.222 | 0.23 | 0.327 | 0.246 | 0.535 | 0.541 | 0.497 | 0.461 | 0.31 | 0.323 | 0.38 | 0.336 | 0.257 | 0.271 | 0.244 | 0.264
7 | LXF-289 | 0.512 | 0.672 | 0.628 | 0.552 | 0.536 | 0.833 | 0.787 | 0.588 | 0.963 | 1 | 0.964 | 0.652 | 0.813 | 1.15 | 1.18 | 0.978 | 0.903 | 1.18 | 1.25 | 0.955
8 | NCI-H23 | 0.516 | 0.493 | 0.618 | 0.418 | 0.227 | 0.185 | 0.199 | 0.212 | 0.522 | 0.617 | 0.659 | 0.53 | 0.286 | 0.214 | 0.235 | 0.106 | 0.3 | 0.251 | 0.407 | 0.233
9 | NCI-H322M | 0.481 | 0.503 | 0.494 | 0.445 | 0.921 | 0.793 | 0.954 | 0.752 | 0.988 | 0.935 | 0.958 | 0.803 | 0.549 | 0.53 | 0.555 | 0.51 | 0.766 | 0.817 | 0.706 | 0.689
10 | NCI-H358 | 0.14 | 0.136 | 0.138 | 0.131 | 0.289 | 0.53 | 0.273 | 0.266 | 0.631 | 0.81 | 0.634 | 0.353 | 0.474 | 0.473 | 0.465 | 0.424 | 0.678 | 0.638 | 0.608 | 0.502
11 | NCI-H441 | – | 0.171 | 0.185 | 0.147 | 0.295 | 0.417 | 0.36 | 0.287 | 0.48 | 0.818 | 0.799 | 0.245 | – | 1.36 | 1.19 | 1.06 | – | 0.799 | 0.531 | 0.467
12 | NCI-H460 | 0.167 | 0.0991 | 0.147 | 0.205 | 0.0407 | 0.0268 | 0.0273 | 0.0309 | 0.466 | 1.14 | 0.805 | 0.375 | 0.563 | 0.556 | 0.731 | 0.328 | 0.286 | 0.468 | 0.586 | 0.305
13 | NCI-H647 | 0.346 | 0.364 | 0.349 | 0.473 | 0.168 | 0.145 | 0.13 | 0.109 | 1.33 | 1.5 | 1.65 | 0.952 | 0.398 | 0.557 | 0.447 | 0.381 | 0.648 | 0.766 | 0.881 | 0.421
